Data from patent US20250051243A1, “Nano Bio-Carrier with Plant Additives Combined with Chemical Fertilizers” (Sabic Agri-Nutrients Company, priority 2021, published 2025).

System: Maize
Assay: Maize trials: soil and foliar application of nano chitosan fertilizer product on maize crops (greenhouse pots)
Format: in vivo
Experimental: Maize trials. Assays were also performed to evaluate soil and foliar application of nano chitosan fertilizer product on maize crops. These trials were also performed to investigate the effect of different concentrations of bulk and nano chitosan on the growth and productivity of maize. The maize trials included a further formulation for nano-chitosan urea, namely a urea-chitosan nanocomposite. The urea-chitosan nanocomposite was prepared by evaporating or freeze-drying the nano-chitosan fertilizer aqueous solution. The current urea-chitosan nanocomposite was prepared by evaporating an aqueous solution of nanochitosan urea at 50° C. for two days in an oven. Nanocomposite morphology of the urea-chitosan nanocomposite was confirmed based on SEM and compositional analysis shown in FIGS. 6A-6E and TEM shown in FIGS. 7A-7E. For SEM and compositional analysis on solid form, samples were studied in Zeiss EVO 15 after coating samples with gold to avoid charging. The powder was mounted on an aluminum stub. Based on the EDS analysis, it appeared that chitosan and urea was present in this powder. For the TEM analysis, a small amount of the sample was taken in a small vial, diluted with DM water and sonicated for 15 mins. One to two drops of this solution was taken on a formvar grid, the excess liquid was blotted on a filter paper, and TEM analysis was carried out Tecnai F20 at representative magnifications shown in FIGS. A thin grey film in the background with very small sized darker particles were apparent. An occasional larger sized film was also seen. Because urea dissolves in water, the morphology seen in the images of this sample was primarily urea-chitosan nanocomposite (nanoparticles). The process of drying in an oven over two days ensured steady removal of water without disturbing the nano-morphology of the urea-chitosan nanocomposite. Table 6 presents the trial details for the soil and foliar application of nano chitosan fertilizer product on maize crops. [table] Control samples were T1 (urea granules, at different time); T2 (urea and zinc, commercially available); and T13 (urea powder). As shown, Table 7A also presents the varying concentrations for the samples. […] Each rectangle represented a section or table in the greenhouse and the respective Trial sample(s) shown thereon. […] FIG. 13 is a graphical representation of the number of leaves apparent at 30 days after sowing (DAS) and at 60 DAS for samples T1 through T23. […] The amount of chlorophyll present in the leaf for samples T1 through T23 was measured using a soil plant analysis development (SPAD) chlorophyll meter and is shown in FIG. 14. […]

Structure (SMILES): NC(N)=O [T13, urea]
- SPAD READING 30 DAS (leaf chlorophyll, SPAD chlorophyll meter, 30 DAS): 34.50
- SPAD READING 60 DAS (leaf chlorophyll, SPAD chlorophyll meter, 60 DAS): 33.33
- Cob Yield (maize): 7.33 g
- Grain Yield (maize): 0.00 g
- Plant Height 30 DAS (maize, 30 DAS): 124.33 centimeters
- Plant height 60 DAS (maize, 60 DAS): 159.00 centimeters
- No. of leaves 30 DAS (maize, 30 days after sowing, soil or foliar application as per treatment): 8.67
- No. of leaves 60 DAS (maize, 60 days after sowing, soil or foliar application as per treatment): 12.67
- corn cob development (grains within the cob) (observation by greenhouse section A, B, C): failed to show grains
